According to patent US11752188B2, “Compositions and methods for nutritional supplements” (DailyColors Health Inc., priority 2020, dated 2023):
Like-named read-outs stand apart in the source and are kept apart here.

Target: T1, recombinant human NAMPT (Homo sapiens, UniProt P43490)
T1 construct: purchased 91004
Assay: NAMPT in vitro enzymatic fluorescence assay
Assay type: biochemical
Method: Assay Conditions: The control compound is dissolved in DMSO. The dilution of the compounds was first performed in 100% DMSO with the highest concentration at 0.01 mM. […] For NAMPT, the compounds (see 2.2) were preincubated with NAMPT enzyme (see 2.3.1) in for 30 minutes. […] The final concentration of DMSO in all reactions was 1%. Fluorescence intensity was measured at an excitation of 340 nm and an emission of 460 nm using a Tecan Infinite M1000 microplate reader.
Data Analysis: NAMPT activity assays were performed in duplicates at each concentration. […] In the absence of the compound, the fluorescent intensity (Ft) in each data set was defined as 100% activity. In the absence of NAMPT, the fluorescent intensity (Fb) in each data set was defined as 0% activity. The percent activity in the presence of each compound was calculated according to the following equation: % activity=(F−Fb)/(Ft−Fb), where F=the fluorescent intensity in the presence of the compound. The values of percentage activity were plotted on a bar graph.

T1 sequence (P43490 whole entry): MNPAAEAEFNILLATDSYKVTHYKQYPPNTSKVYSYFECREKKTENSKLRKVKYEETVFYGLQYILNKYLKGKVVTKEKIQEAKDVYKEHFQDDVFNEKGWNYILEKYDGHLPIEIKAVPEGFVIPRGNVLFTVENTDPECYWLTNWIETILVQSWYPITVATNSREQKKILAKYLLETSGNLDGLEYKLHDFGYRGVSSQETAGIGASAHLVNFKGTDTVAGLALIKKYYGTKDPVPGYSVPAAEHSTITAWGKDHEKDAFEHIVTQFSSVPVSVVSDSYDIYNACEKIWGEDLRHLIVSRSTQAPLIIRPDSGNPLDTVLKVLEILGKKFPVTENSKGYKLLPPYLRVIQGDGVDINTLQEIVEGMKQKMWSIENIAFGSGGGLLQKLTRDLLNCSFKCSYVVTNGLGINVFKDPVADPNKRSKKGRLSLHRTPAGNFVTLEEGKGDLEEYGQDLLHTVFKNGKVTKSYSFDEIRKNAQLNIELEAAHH

With `O=C(/C=C/c1cccnc1)NCCCCC1CCN(C(=O)c2ccccc2)CC1` [FK-866] the inhibition at 0.001 µM was 4%, the inhibition at 0.01 µM was 57% and the inhibition at 0.1 µM was 100%. For the same compound, the “Background (Fluorescence count) Repeat 1” value (0.001 μM) was 450, the “Background (Fluorescence count) Repeat 2” value (0.001 μM) was 442 and the “NAMPT Activity (Fluorescence Intensity) Repeat 1” value (0.001 μM) was 3328. The “NAMPT Activity (Fluorescence Intensity) Repeat 2” value (0.001 μM) was 3345, the “Background (Fluorescence count) Repeat 1” value (0.01 μM) was 454 and the “Background (Fluorescence count) Repeat 2” value (0.01 μM) was 461. The “NAMPT Activity (Fluorescence Intensity) Repeat 1” value (0.01 μM) was 1750, the “NAMPT Activity (Fluorescence Intensity) Repeat 2” value (0.01 μM) was 1766 and the “Background (Fluorescence count) Repeat 1” value (0.1 μM) was 440. The “Background (Fluorescence count) Repeat 2” value (0.1 μM) was 442, the “NAMPT Activity (Fluorescence Intensity) Repeat 1” value (0.1 μM) was 463 and the “NAMPT Activity (Fluorescence Intensity) Repeat 2” value (0.1 μM) was 468. For the same compound, the activity at 0.001 µM (read-out: % Activity Repeat 1) was 95%, the activity at 0.01 µM (read-out: % Activity Repeat 1) was 42% and the activity at 0.1 µM (read-out: % Activity Repeat 1) was 0%. For the same compound, the activity at 0.001 µM (read-out: % Activity Repeat 2) was 96%, the activity at 0.01 µM (read-out: % Activity Repeat 2) was 43% and the activity at 0.1 µM (read-out: % Activity Repeat 2) was 0%.
